Like-named read-outs stand apart in the source and are kept apart here. Values belong to the compound of their own block, whether it stands above or below them.
What was measured:
CYPlAl [1] = test: CYP1A1 activity test (P450-GLO assay) in Hep G2 cells
Procedure: The tests are carried out using the P450-GLO assay kit from Promega. At D0, the cells are seeded at a density of approximately 60% confluence, and then treated at Dl with the test substance diluted to various concentrations in the appropriate culture medium. At D2, the CYPlAl activity is measured as recommended by the supplier, using the nonlytic protocol on a cell monolayer.

AhR [2] = biological target: T1, AhR (Homo sapiens, UniProt P35869); test: AhR activation test, luciferase reporter plox-XRE TATA-Luc in HEP G2 cells; type: cell-based; parameters: endogenous in cells; host or cells: Hep G2 cells transduced with the reporter lentivector plox-XRE TATA-Luc; conditions: for AhR percentage activation compared to 0.01 μM TCDD: HEP G2 cells, most active concentration in the range tested
T1 sequence (P35869 11-848): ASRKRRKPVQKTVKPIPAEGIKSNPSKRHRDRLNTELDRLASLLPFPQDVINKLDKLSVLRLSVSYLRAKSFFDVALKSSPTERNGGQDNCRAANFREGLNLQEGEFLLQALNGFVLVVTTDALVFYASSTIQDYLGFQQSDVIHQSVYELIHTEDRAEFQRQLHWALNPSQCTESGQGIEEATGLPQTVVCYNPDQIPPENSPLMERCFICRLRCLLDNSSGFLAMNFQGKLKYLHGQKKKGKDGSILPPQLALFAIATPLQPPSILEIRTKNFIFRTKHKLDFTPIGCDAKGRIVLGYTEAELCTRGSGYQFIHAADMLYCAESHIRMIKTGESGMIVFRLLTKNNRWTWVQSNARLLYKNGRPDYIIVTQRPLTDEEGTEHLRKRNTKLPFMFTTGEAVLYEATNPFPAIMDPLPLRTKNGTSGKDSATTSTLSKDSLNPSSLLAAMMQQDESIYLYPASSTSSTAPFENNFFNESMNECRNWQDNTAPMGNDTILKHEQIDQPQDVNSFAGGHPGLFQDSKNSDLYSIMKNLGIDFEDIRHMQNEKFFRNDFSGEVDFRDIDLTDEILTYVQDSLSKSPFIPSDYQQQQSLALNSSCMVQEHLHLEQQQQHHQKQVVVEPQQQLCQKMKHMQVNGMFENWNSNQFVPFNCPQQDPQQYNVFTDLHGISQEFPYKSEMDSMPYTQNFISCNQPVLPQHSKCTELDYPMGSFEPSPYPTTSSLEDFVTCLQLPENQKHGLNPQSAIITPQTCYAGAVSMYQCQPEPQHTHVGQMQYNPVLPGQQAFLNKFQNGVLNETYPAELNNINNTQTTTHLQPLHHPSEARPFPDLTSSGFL
Procedure: (§1) The Hep G2 cells are cultured in DMEM (Gibco)+10% fetal bovine serum+penicillin+streptomycin, the NHKs in keratinocyte SFM medium (Gibco)+penicillin+streptomycin. At DO, the Hep G2 cells are seeded into 12-well plates in a proportion of approximately 30 000 cells/cm^2. The NHKs are seeded into 6-well plates in a proportion of approximately 15 000 cells/cm^2. After 24 h, the medium is replaced with fresh medium and the cells are transduced with the lentivector plox-XRE TATA-Luc. After 48 h, the cells are subcultured and maintained in culture, and tested for their reactivity to TCDD.
The tests are carried out using the luciferase reporter assay system kit from Promega. At DO, the cells are seeded at a density of approximately 60% confluence, and then treated, at Dl, with the test substance diluted to various concentrations in the appropriate culture medium. At D2, the cells are lysed in CLB buffer, and the lysate is clarified by centrifugation for 5 min at 10 000 g. The luciferase activity is measured in 20 microliters of lysate as recommended by the supplier, using the luminoskan luminometer (Thermo).

sebaceous glands [3] = test: Sebaceous glands in the ear skin of C57BL/6 mice after topical application; type: in vivo
Text: The effect on the sebaceous glands can be reproduced in animals by topical application of TCDD. A 95% reduction in the number of sebaceous glands can be observed in C57BL/6 mice after 45 days of application of 2 mcg/ml TCDD (FIG. 2).
To reproduce the useful effect of TCDD, in a therapeutic reduction approach the reduction in the surface area of the sebaceous glands in the ears of C57BL/6 mice treated once a day for 45 d with various ligands according to the invention can be studied. The surface area of the sebaceous glands is measured on three serial sections per animal. A reduction of greater than 40% is sought, and obtained here with a concentration, a treatment time and an application frequency considered to be minimal. Isotretinoin is shown by way of example of a product used for the topical and systemic treatment of acne.
The topical application of an AhR ligand such as 6-formylindolo[3,2-b]carbazole (FICZ), at a concentration of 100 mcg/ml, makes it possible to obtain a significant decrease in the sebaceous glands, of the order of 40%. Other ligands according to the invention (see FIGS. 14, 15 and 17) also lead to a decrease in the surface area of the sebaceous glands.

human keratinocytes = test: Wound healing in vitro on a culture of human keratinocytes (migration index); type: cell-based
Procedure: The wound is induced by means of an incision with a yellow micropipette tip (10-200 μl). Migration index value obtained with the ligand/that of the control without ligand. […] This indicates an activity of the AhR activation pathway on the migration of keratinocytes which is found in vivo in humans (FIGS. 5, 6, 10).

sebaceous glands [4] = test: Sebaceous glands in biopsies of human skin exposed to TCDD (histology); type: in vivo; conditions: human skin containing 930 to 2900 ppt of TCDD; 62 biopsies, 620 sections
Procedure: The sebaceous glands, which are present in large numbers in normal human skin, disappear during exposure to toxic doses of TCDD. […] Thus, on the face of an adult, the number is between 400 and 900/cm^2.
For each site, 3 to 10 skin biopsies were analyzed after fixing with formol and staining with hematin-eosin. At least 10 sections per block were analyzed.

dermabrasions = test: Healing of superficial epidermal-dermal wounds (dermabrasions) in human skin containing TCDD; type: in vivo
Text: Thus, the time to complete healing is reduced from 9.3 to 5 days.

CYPlAl [5] = test: CYP1A1 activity test (P450-GLO assay) in NHK cells; type: cell-based, human; conditions: 10 nM, 24 h
human skin [6] = test: Messenger RNA expression (RT PCR, transcriptome) in human skin exposed to TCDD; type: in vivo
Text: This observation identifies a new target for medicaments aimed at modulating sebaceous function, a concept exemplified here by AhR activation.
The expression of the messenger RNAs of vascular endothelial growth factors (VEGFs) and of their receptors is increased in skin exposed to TCDD.
The expression of the messenger RNAs of the various estrogen receptors ESRR and ER, of the estrogen responsive finger protein (EFP) ligase and of the estrogen-producing aromatase enzyme is increased in skin exposed to TCDD.

human skin [7] = test: Estradiol (E2) concentration in human skin exposed to TCDD by ELISA; type: in vivo; conditions: human skin containing 1800 ppt of TCDD versus controls
[8] = test system: staphylococcus sp, P. acnes; test: Bacterial colonization of human skin exposed to TCDD (CFU per cm^2); type: in vivo
[9] = human organism; cited from earlier work
AhR [10] = biological target: T1, AhR; test: Test for potentiation by bacterial flora: AhR activation in HEP G2 cells with skin bacteria extracts and tryptophan; type: cell-based; parameters: endogenous in cells; host or cells: Hep G2 cells transduced with the reporter lentivector plox-XRE TATA-Luc
Procedure: The activation value 25.00 on the Y-axis corresponds to ⅙ of the AhR stimulation by 10 nM TCDD in this same system (157.00).

AhR [11] = biological target: T1, AhR; test: AhR activation test, luciferase reporter plox-XRE TATA-Luc in normal human keratinocytes; type: cell-based; parameters: endogenous in cells; host or cells: normal human keratinocytes (NHKs) transduced with the reporter lentivector plox-XRE TATA-Luc; conditions: NHK-plox-XRE TATA-Luc cells, 10 nM, 24 h
Procedure: FIGS. 14, 15 and 16 show AhR activation in HEP G2 cells and normal human keratinocytes (NHKs) stably transfected with the lentivector plox-XRE TATA-Luc.
as §1
The tests are carried out using the luciferase reporter assay system kit from Promega. […] At D2, the cells are lysed in CLB buffer, and the lysate is clarified by centrifugation for 5 min at 10 000 g. The luciferase activity is measured in 20 microliters of lysate as recommended by the supplier, using the luminoskan luminometer (Thermo).
Similar results are noted.

seborrhea = test: Sebumetric measurement of casual sebum levels on the face of hyperseborrheic men; type: in vivo, human; conditions: gel containing 1% tryptophan on the face of two hyperseborrheic men for 3 weeks
Text: The effect shown in FIG. 16, where it is seen that Propionibacterium acnes (PA) generates an AhR activation, which is highly accentuated by the addition of tryptophan, can be taken advantage of in the context of this invention. This is because PA is one of the key players in sebaceous gland diseases, and it is present in large amounts in facial skin. It could therefore contribute to producing therapeutic amounts of AhR ligands in the presence of tryptophan, or also other aromatic amino acids such as tyrosine and phenylalanine. In order to explore the relevance of this approach, the applicant carried out a test by applying a gel containing 1% tryptophan to the face of two hyperseborrheic men for 3 weeks, and observed a decrease in the seborrhea which could be evaluated at 40% of the starting value using sebumetric measurement of the casual sebum levels.

chronic wounds = test: Chronic human leg wounds with dermatoporosis treated with tryptophan gel; type: in vivo
[12] = human skin containing 1800 ppt of TCDD versus controls

Compound: CCOC(=O)c1cc2c(cn1)[nH]c1ccccc12 [B-CCE, Ethyl β-carboline-3-carboxylate]
induction of CYPlAl activity by ligands according to the invention (CYPlAl [1]; FIG. 17, cell type not stated for the ligands): induction of this AhR-dependent biological activity | AhR percentage activation compared to 0.01 μM TCDD (AhR [2]): greatest activities

AhR percentage activation compared to 0.01 μM TCDD (AhR [2]): greatest activities
Compound: O=Cc1c2c(cc3c1=Nc1ccccc1-3)=Nc1ccccc1-2 [FICZ, 6-Formylindolo[3,2-b]carbazole]
decrease in the sebaceous glands (sebaceous glands [3]; C57BL/6 mice ears, topical 100 mcg/ml, once a day for 45 d): ~40% | effect on healing at the highest concentrations (human keratinocytes): a decrease in the effect, or even an inhibition of healing | stimulation of healing (migration index) (human keratinocytes; μM concentrations): strong stimulation of healing

Compound: Clc1cc2c(cc1Cl)Oc1cc(Cl)c(Cl)cc1O2 [TCDD, 2,3,7,8-tetrachlorodibenzo-p-dioxin]
sebaceous glands observed in skin biopsies (sebaceous glands [4]): no sebaceous gland could be observed | reduction in the number of sebaceous glands (sebaceous glands [3]; C57BL/6 mice, topical 2 mcg/ml, 45 days): 95% | time in which epidermal-dermal wounds are covered (dermabrasions; human exposed to TCDD, average healing time ordinarily 10 days): 3 days | time to complete healing of dermabrasions (dermabrasions; human skin with 930 to 2900 ppt TCDD, controls 9.3 days): 5 days | effect on healing at the highest concentrations (human keratinocytes): a decrease in the effect, or even an inhibition of healing | stimulation of healing (migration index) (human keratinocytes; nM concentrations): strong stimulation of healing | induction of the CYPlAl activity (CYPlAl [1]; Hep G2 cells, 10 nM, 24 h): 250 fold | induction of the CYPlAl activity (CYPlAl [5]): 20 fold | expression of messenger RNAs of estrogen receptors ESRR and ER, EFP ligase and aromatase (human skin [6]; [12]): increased | expression of messenger RNAs of vascular endothelial growth factors (VEGFs) and their receptors (human skin [6]; [12]): increased | hyaluronate in the dermis (human skin [6]; human skin exposed to TCDD): very substantial accumulation of hyaluronate in the dermis | messenger RNAs of sebaceous lipogenesis enzymes (human skin [6]; human skin exposed to TCDD, whole transcriptome): considerable reduction | concentration of estradiol (E2) in skin (human skin [7]): increase in the concentration of estradiol | P. acnes colonization of skin ([8]; human skin exposed to TCDD): same effect is observed | colonization of skin by staphylococcus sp (CFU per cm^2) ([8]; human with more than 900 ppt of TCDD in the skin, 4 samples 1 month apart): very greatly decreased | half-life in human tissues [9]: 4-12 years | induction of the luciferase activity (AhR [2]; Hep G2-plox-XRE TATA-Luc cells, 10 nM, 24 h): 100 fold | AhR stimulation (activation value on the Y-axis) (AhR [10]; 10 nM): 157.00 | induction of the luciferase activity (AhR [11]): 10 fold

Compound: COc1ccccc1OCCNCC(O)COc1cccc2[nH]c3ccccc3c12 (stereo not shown) [carvedilol, Carvedilol]
induction of CYPlAl activity by ligands according to the invention (CYPlAl [1]): induction of this AhR-dependent biological activity

AhR percentage activation compared to 0.01 μM TCDD (AhR [2]): greatest activities
Compound: O=c1cc(O)cc(/C=C/c2ccc(O)c(O)c2)o1 [hispidin, Hispidin]

Compound: O=c1c2ccccc2nc2n1CCc1c-2[nH]c2ccccc12 [rutaecarpine, Rutaecarpine]
induction of CYPlAl activity by ligands according to the invention (CYPlAl [1]): induction of this AhR-dependent biological activity

Compound: N[C@@H](Cc1c[nH]c2ccccc12)C(=O)O [tryptophan]
decrease in the seborrhea (casual sebum levels), of the starting value (seborrhea): 40% | stimulation of healing (migration index) (human keratinocytes; μM concentrations): strong stimulation of healing | dermatoporotic skin around the wound (chronic wounds): thickening of the dermatoporotic skin around the wound | healing of chronic wounds (chronic wounds; series of 10 cases of chronic wounds on legs): Contraction of chronic wounds and the development of epithelial healing | AhR percentage activation compared to 0.01 μM TCDD (AhR [2]): greatest activities | AhR activation with bacterial extract on addition of tryptophan (AhR [10]; in particular with P. acnes extract): an increase in the activation is observed
